Source: patent US4137420A, “Cysteine derivatives” (Santen Pharmaceutical Co., Ltd., priority 1976, dated 1979)

Experiments:
[1] = Changes in the mucolytic activity of the test compounds treated with rabbit serum (viscosity of egg white); conditions: for Reduction in the mucolytic activity (%): 1.0 mM, rabbit serum treated vs untreated; for Percent reduction in relative viscosity of egg white, treated with rabbit serum / Percent reduction in relative viscosity of egg white, untreated with rabbit serum: final concentration 1.0 mM, mean ± S.E. of 3 to 5 experiments; for Percent reduction in relative viscosity of egg white, treated with rabbit serum: after 30 minutes at 37° C with rabbit serum; for Percent reduction in relative viscosity of egg white, untreated with rabbit serum: without rabbit serum
Procedure: (3) Changes in the mucolytic activity of the test compounds treated with rabbit serum.
0.1ml of test compound (prepared in the same manner as (1) previously described) and 0.9ml of rabbit serum are put into a 50-ml beaker and the resulting mixture is shaken for 30 minutes at 37° C. 9ml of egg white is then added it and it is shaken for another 20 minutes. The viscosity of the resulting solution is determined by an Ostwald viscosimeter. Results shown in Table 2 are percent reduction in the relative viscosity of egg white at 1mM of the test compounds after treatment with or without rabbit serum.

[2] = In vitro determination of the reduction in viscosity of egg white; conditions: 20 minutes at 37° C, mean ± S.E. of 3 to 5 experiments
Procedure: Mucolytic activity is evaluated by determining the reduction in viscosity of egg white or mucin in vitro. L-Cysteine ethyl ester hydrochloride, L-cysteine methyl ester hydrochloride and acetyl-L-cysteine are used as test compounds for comparison. (1) In vitro determination of the reduction in viscosity of egg white Egg white, which is pooled in sufficient quantity to supply material for all the determinations, is gently blended in a mixer for 5 minutes. 9ml portions of this material are put into a 50-ml beaker and the test solution in a volume of 1ml containing various concentrations of test compound (test compound is dissolved in distilled water and the solution is adjusted to pH 8.0 with 1 N sodium hydroxide, while distilled water is used as a control) is added. The mixture is then shaken for 20 minutes at 37° C. Viscosity of the resulting solution is determined by an Ostwald viscosimeter. Results shown in Table 1 are percent reduction in relative viscosity at various concentrations of the test compound used.

[3] = in vivo; conditions: mouse, ip
Procedure: 5-week-old male mice of ddy strain (body weight 24-28g) are used. […] Test solution
Test compound is added to physiological saline and the resulting solution is neutralized with sodium hydroxide to form a 5% solution (pH 7.0).
After administration of test solution, general symptoms and deaths which are caused during seven days are observed. The LD50 values are calculated according to the method of Litchfield and Wilcoxon.

[4] = tested on: mucin; assay: In vitro determination of the reduction in viscosity of mucin; conditions: 10 mM; 1% mucin, pH 8.0, 1 hour at 37° C; mean ± S.E. of 3 to 5 experiments
Procedure: Mucolytic activity is evaluated by determining the reduction in viscosity of egg white or mucin in vitro. L-Cysteine ethyl ester hydrochloride, L-cysteine methyl ester hydrochloride and acetyl-L-cysteine are used as test compounds for comparison.
(2) In vitro determination of the reduction in viscosity of mucin
According to the method presented by Sheffner et al. (Ann, N.Y. Acad. Sci., Vol. 106, P 298-310, 1963), bacteriological mucin (Nakarai Chemical Co., Ltd.) is dissolved in Sorensen's phosphate buffer (pH =8.0) and a 1% mucin solution is prepared. 0.9ml portions of the solution are put into test tubes and test compounds (prepared in the same manner as in (1) previously described, except that the buffer solution is used for control) are added to them in a concentration 10mM. The mixture is then shaken for 1 hour at 37° C. The viscosity of the resulting solution is determined by Ostwald viscosimeter. Results shown in Table 1 are percent reduction in relative viscosity at 10mM of the test compounds used.

Structure (SMILES)	Reduction in the mucolytic activity (%) [1]	Percent reduction in relative viscosity of egg white, treated with rabbit serum [1]	Percent reduction in relative viscosity of egg white, untreated with rabbit serum [1]	Percent reduction in relative viscosity, egg white ([2]; final concentration 0.1 mM)	Percent reduction in relative viscosity, egg white ([2]; final concentration 10.0 mM)	LD50 at 168 h [3]	Percent reduction in relative viscosity, mucin [4]
CC(S)C(=O)N[C@@H](CS)C(=O)O (single isomer, unassigned) [N-(2-mercaptopropionyl)-L-cysteine-A]	27.2%	30.0 ± 1.0%	41.2 ± 2.1%	24.9 ± 1.5%	56.4 ± 1.6%	2090 mg/kg	26.6 ± 1.5%
CC(S)C(=O)N[C@@H](CS)C(=O)O (single isomer, unassigned) [N-(2-mercaptopropionyl)-L-cysteine-B]	18.8%	31.1 ± 3.8%	38.1 ± 2.6%	24.9 ± 1.4%	57.7 ± 1.0%		20.1 ± 0.4%
CCOC(=O)[C@@H](N)CS.Cl [L-cysteine ethyl ester hydrochloride, L-Cysteine ethyl ester hydrochloride, reference compound]	63.3%	15.4 ± 1.8%	42.0 ± 1.1%	25.1 ± 3.5%	59.9 ± 1.2%		19.7 ± 1.5%
COC(=O)[C@@H](N)CS.Cl [L-cysteine methyl ester hydrochloride, reference compound]	84.6%	7.0 ± 1.2%	45.5 ± 2.0%	31.1 ± 5.6%	60.6 ± 2.4%		17.8 ± 0.2%
CC(C)(S)C(=O)N[C@@H](CS)C(=O)O [N-(2-mercaptoisobutyryl)-L-cysteine]	14.1%	32.9 ± 1.0%	38.3 ± 2.2%	23.1 ± 1.4%	57.0 ± 1.0%		22.5 ± 1.5%
O=C(CCS)N[C@@H](CS)C(=O)O [N-(3-mercaptopropionyl)-L-cysteine]	-5.4%	38.7 ± 2.6%	36.7 ± 1.6%	22.8 ± 0.1%	54.5 ± 4.7%		28.1 ± 0.5%
CC(=O)N[C@@H](CS)C(=O)O [N-acetyl-L-cysteine, acetyl-L-cysteine, reference compound]	37.3%	18.5 ± 0.8%	29.5 ± 2.5%	11.0 ± 2.6%	49.0 ± 1.8%		4.8 ± 2.5%
O=C(CS)N[C@@H](CS)C(=O)O [N-mercaptoacetyl-L-cysteine]	9.8%	35.9 ± 0.3%	39.8 ± 3.0%	26.1 ± 4.1%	60.0 ± 4.4%		31.8 ± 1.5%
